Laboratory results taken from patent US20200002275A1, “Dimethyl Farnesyl Amine Oxide And Its Use As Surfactant Or Wetting Agent” (Clariant International Ltd., priority 2017, published 2020).

Key:
Format in all cases: physicochemical
[1] = Measurement of foam creation and decay on a SITA foam tester; conditions: 0.01 g/L surfactant solution, 1200 rpm, room temperature, 5 minutes foam creation; listed as dimethyl farnesyl amine oxide
Method: This method monitors foam generation and decay at room temperature over time. A surfactant solution of 0.01 g/L was pumped into the SITA foam tester R2000. The speed of the stirring plate was set to 1200 rpm. Foam creation was recorded in a 10 second interval for 5 minutes and decay was recorded in a 30 second interval for 15 minutes at room temperature.

[2] = CMC (critical micelle concentration) and surface tension measurements, Du Noüy ring method; conditions: 25° C., Krüss Tensiometer K 100 (Ring)
Method: CMC (critical micelle concentration) and surface tension measurements These measurements were conducted with the Krüss Tensiometer K 100 (Ring), which utilized the Du Noüy ring method. Surface tension profiles of the amine oxides were measured at 25° C.

[3] = Determination of wetting ability by immersion (modified EN 1772:2000); conditions: 0.1 wt.-% aqueous solution, room temperature, raw cotton disc, mean of five measurements
Method: This measurement was modified based on the European Standard EN 1772:2000. A 500 mL 0.1 wt.-% aqueous solution of test surfactant was prepared. The test solution was kept at room temperature to stabilize for 1 h. A raw cotton disc (30 mm diameter, wfk Testgewebe GmbH), was clamped in a gripper and immersed in the solution. Stopwatch was started at the moment when the lower part of the disc touched the solution and stopped when the disc began to sink of its own accord. The arithmetic mean of five measurements was calculated and recorded as the wetting time.

[4] = Dynamic surface tension measurements, maximum bubble pressure method; conditions: deionized water, 25° C.
Method: These measurements were conducted with the Krüss PocketDyne BP2100, which utilized the maximum bubble pressure method of surface tension analysis. Surface tension profiles of dimethyl farnesyl amine oxide and diethyl farnesyl amine oxide at the desired concentration were measured in deionized water at 25° C.
The results in table 2 are given in mN/m.

[5] = Solubility in water (observation)

Which Foam ability [1] does the source give for `CC(C)=CCC/C(C)=C/CC/C(C)=C/C[N+](C)(C)[O-]` [Dimethyl, Dimethyl Farnesyl Amine Oxide] here?
Its Foam ability is “no foam at all”.

What about the “C20: concentration of surfactant to reduce the surface tension of water by 20 mN/m” value [2] of the same compound?
The value was 0.018 g/L.

And the CMC [2]?
Its CMC is 1.09 g/L.

What about the Surface tension [2] of the same compound?
Its Surface tension is 28.7 mN/m.

And the Wetting time [3]?
The Wetting time was 28 s.

And the “Surface tension at surface age 20 ms” value ([4]; 0.3 g/L)?
Its value is 59.9 mN/m.

What about the “Surface tension at surface age 50 ms” value ([4]; 0.3 g/L) of the same compound?
The value was 56.9 mN/m.

And the “Surface tension at surface age 100 ms” value ([4]; 0.3 g/L)?
Its value is 52.9 mN/m.

And the “Surface tension at surface age 200 ms” value ([4]; 0.3 g/L)?
The value was 51.5 mN/m.

What about the “Surface tension at surface age 400 ms” value ([4]; 0.3 g/L) of the same compound?
The value was 49.5 mN/m.

And the “Surface tension at surface age 20 ms” value ([4]; 1.0 g/L)?
Its value is 43.8 mN/m.

And the “Surface tension at surface age 50 ms” value ([4]; 1.0 g/L)?
The value was 40.7 mN/m.

And the “Surface tension at surface age 100 ms” value ([4]; 1.0 g/L)?
The value was 39.3 mN/m.

What about the “Surface tension at surface age 200 ms” value ([4]; 1.0 g/L) of the same compound?
Its value is 38.1 mN/m.

And the “Surface tension at surface age 400 ms” value ([4]; 1.0 g/L)?
The value was 36.9 mN/m.

And the “Surface tension at surface age 20 ms” value ([4]; 3.0 g/L)?
The value was 35.3 mN/m.

And the “Surface tension at surface age 50 ms” value ([4]; 3.0 g/L)?
Its value is 33.2 mN/m.

What about the “Surface tension at surface age 100 ms” value ([4]; 3.0 g/L) of the same compound?
Its value is 32.5 mN/m.

What about the “Surface tension at surface age 200 ms” value ([4]; 3.0 g/L) of the same compound?
Its value is 32.1 mN/m.

And the “Surface tension at surface age 400 ms” value ([4]; 3.0 g/L)?
Its value is 31.5 mN/m.

Which solubility in water [5] does the source give for `CC[N+]([O-])(CC)CC=C(C)CCC=C(C)CCC=C(C)C` [Diethyl, Diethyl Farnesyl Amine Oxide, reference compound] here?
Its solubility in water is “very poor”.

What about the Wetting time [3] of the same compound?
Its Wetting time is 54 s.

And the “Surface tension at surface age 20 ms” value ([4]; 0.3 g/L)?
Its value is 66.7 mN/m.

And the “Surface tension at surface age 50 ms” value ([4]; 0.3 g/L)?
The value was 65.6 mN/m.

And the “Surface tension at surface age 100 ms” value ([4]; 0.3 g/L)?
The value was 64.3 mN/m.

And the “Surface tension at surface age 200 ms” value ([4]; 0.3 g/L)?
Its value is 65.7 mN/m.

And the “Surface tension at surface age 400 ms” value ([4]; 0.3 g/L)?
Its value is 65.0 mN/m.

And the “Surface tension at surface age 20 ms” value ([4]; 1.0 g/L)?
Its value is 60.0 mN/m.

And the “Surface tension at surface age 50 ms” value ([4]; 1.0 g/L)?
Its value is 62.0 mN/m.

And the “Surface tension at surface age 100 ms” value ([4]; 1.0 g/L)?
The value was 57.3 mN/m.

What about the “Surface tension at surface age 200 ms” value ([4]; 1.0 g/L) of the same compound?
The value was 56.0 mN/m.

What about the “Surface tension at surface age 400 ms” value ([4]; 1.0 g/L) of the same compound?
The value was 54.9 mN/m.

What about the “Surface tension at surface age 20 ms” value ([4]; 3.0 g/L) of the same compound?
The value was 55.2 mN/m.

And the “Surface tension at surface age 50 ms” value ([4]; 3.0 g/L)?
The value was 52.7 mN/m.

And the “Surface tension at surface age 100 ms” value ([4]; 3.0 g/L)?
The value was 51.8 mN/m.

And the “Surface tension at surface age 200 ms” value ([4]; 3.0 g/L)?
Its value is 50.6 mN/m.

And the “Surface tension at surface age 400 ms” value ([4]; 3.0 g/L)?
The value was 51.6 mN/m.
